Source: patent US20070155660A1, “Inhibition of voluntary ethanol consumption with selective melanocortin 4-receptor agonists” (priority 2003, published 2007)
Numbered stars: 1 amine (or outer) side, 2 acyl side, 3 side chain; on linkers, the order of the positions; unused ones are H or OH. Bridge positions count the residues as written; N and C are the ends. Square brackets hold non-standard residues; d marks the D form. Peptide text beside a SMILES is read from it. ξ: configuration not given here. dPhe(4-Cl) = N[C@H](Cc1ccc(Cl)cc1)C(=O)O; 2Nal = N[C@@H](Cc1ccc2ccccc2c1)C(=O)O; Suc = O=C(CCC(=O)[*:2])[*:1]; ξE = NC(CCC(=O)O)C(=O)O; ξDab = NCCC(N)C(=O)O; ξK = NCCCCC(N)C(=O)O; ξDap = NCC(N)C(=O)O; Ava = NCCCCC(=O)O; GABA = NCCCC(=O)O

Legend:
MC4R [1] = biological target: T1, MC4R (Homo sapiens, UniProt P32245); assay: Competitive binding assay, [125I]-NDP-α-MSH, CHO cell membranes; design: expressed in transfected cells; host or cells: Chinese hamster ovary (CHO) cells; details: for Selectivity Binding IC50 3R/4R: ratio of IC50 hMC-3R / hMC-4R; for Selectivity Binding IC50 5R/4R: ratio of IC50 hMC-5R / hMC-4R
Description: The peptides of the present invention were evaluated for […] in receptor binding assay. Crude membrane preparations were obtained from Chinese hamster ovary cells expressing human MC3, MC4, and MC5 receptors. Cells were rinsed with phosphate-buffered saline (PBS) lacking CaCl2 or MgCl2 (Life Technologies, Gaithersburg, Md., USA), and then detached with enzyme-free dissociation media (Specialty Media, Lavellette, N.J., USA). Cells were pelleted at 2800×g for 10 minutes and resuspended in membrane buffer (20 mM Tris, pH 7.2, 5 mM ethylenediaminetetraacetic acid) with 5 μg/ml leupeptin, 5 μg/ml aprotinin, 40 μg/ml bacitracin, and 25 μg/m pefabloc (Boehringer Mannheim). The cells were […] with 10 strokes by using a motor-driven Teflon-coated pestle in a glass homogenizer at low speed. The resulting cell suspension was centrifuged at 4100×g, 4° C., for 20 minutes. The pellet was resuspended in fresh membrane buffer with protease inhibitors, aliquoted, snap-frozen in liquid nitrogen, and stored at −80° C. The resulting crude membranes were titrated to determine the optimal level necessary for performing binding studies. Results
Binding reactions (total volume=[…]) contained MBB (50 mM Tris, pH 7.2, 2 mM CaCl2, 1 mM MgCl2), 0.1% bovine serum albumin, crude membranes prepared from cells expressing human MC3, MC4, or MC5 receptor, 200 pM of [125I]-NDP-α-MSH (Amersham, Arlington Heighs, Ill., USA), and increasing concentrations of unlabeled test compounds dissolved in dimethylsulfoxide (final concentration=2%). Reactions were incubated for 1 hour without shaking and then filtered through 96-well filter plates (Packard), presoaked in 1% polyethyleneimine. Filters were washed 3 times with TNE buffer (50 mM Tris, pH 7.4, 5 mM ethylenediaminetetraacetic acid, 150 mM NaCl), dried and counted by using Microscint-20 in a Topcount scintillation counter (Packard). Nonspecific binding was determined in the presence of 2 μm of unlabeled NDP-α-MSH (Peninsula Laboratories). Active peptides were evaluated in three independent experiments.
Target sequence in this assay (P32245 whole entry): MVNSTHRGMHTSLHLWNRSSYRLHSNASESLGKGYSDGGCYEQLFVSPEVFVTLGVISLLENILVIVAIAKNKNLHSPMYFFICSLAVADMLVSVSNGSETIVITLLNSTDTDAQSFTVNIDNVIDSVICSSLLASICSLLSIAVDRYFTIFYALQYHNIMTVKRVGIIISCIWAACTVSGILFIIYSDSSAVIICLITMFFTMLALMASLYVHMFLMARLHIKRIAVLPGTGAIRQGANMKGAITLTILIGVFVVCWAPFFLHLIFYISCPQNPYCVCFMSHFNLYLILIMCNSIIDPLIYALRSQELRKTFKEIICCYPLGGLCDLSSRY

MC4R [2] = biological target: T1, MC4R; assay: cAMP assay in CHO cells expressing a human melanocortin receptor; type: cell-based; design: expressed in transfected cells; host or cells: Chinese hamster ovary (CHO) cells; details: for Selectivity cAMP EC50 3R/4R: ratio of EC50 hMC-3R / hMC-4R; for Selectivity cAMP EC50 5R/4R: ratio of EC50 hMC-5R / hMC-4R
Description: (§1) Chinese hamster ovary cells expressing a human melanocortin receptor were rinsed with calcium-and magnesium-free PBS (Life Technologies), and detached from the tissue culture flasks by 5-minutes incubation with enzyme-free dissociation buffer (S-014-B, Specialty Media). Cells were collected by centrifugation and resuspended in Earle's balanced salt solution (Life Technologies) with addition of 10 mM 4-(2-hydroxyethyl)-1-piperazineethanesulfonic acid (Hepes) buffer, pH 7.5, 5 mM MgCl2, 1 mM glutamine, and 1 mg/ml bovine serum albumin to concentration of 1-5×10^6 cells/ml. Subsequently, cells were counted and the cell suspension was treated with the phosphodiesterase inhibitor 3-isobutyl-1-methylxanthine (to concentration of 0.6 mM).
(§2) A test compound was dissolved in dimethyl sulfoxide (DMSO, 10^−3 to 10^−8 M), diluted with buffer and 0.1 volume of the solution was added to 0.9 volumes of the cell suspension (1 to 5×10^5 cells); final concentration of DMSO was 1%. After 45 minutes at room temperature, cells were lysed by incubation at 100° C. for 5 minutes to release accumulated cAMP. Accumulation of cAMP was measured in an aliquot of the cell lysate with the Amersham (Arlington Heights, Ill.) cAMP detection assay kit (RPA556). The amount of cAMP produced in response to a tested compound was compared to the amount of cAMP produced in response to α-MSH, defined as a 100% agonist. All active peptides were characterized in three independent experiments.
Target sequence in this assay (P32245 whole entry): as above

MC5R [3] = biological target: T2, MC5R (Homo sapiens, UniProt P33032); assay: as above; type: cell-based; design: expressed in transfected cells; host or cells: Chinese hamster ovary (CHO) cells; details: @ 5 (concentration unit not given); cAMP relative to α-MSH defined as 100% agonist
Description: as §1, §2
Target sequence in this assay (P33032 whole entry): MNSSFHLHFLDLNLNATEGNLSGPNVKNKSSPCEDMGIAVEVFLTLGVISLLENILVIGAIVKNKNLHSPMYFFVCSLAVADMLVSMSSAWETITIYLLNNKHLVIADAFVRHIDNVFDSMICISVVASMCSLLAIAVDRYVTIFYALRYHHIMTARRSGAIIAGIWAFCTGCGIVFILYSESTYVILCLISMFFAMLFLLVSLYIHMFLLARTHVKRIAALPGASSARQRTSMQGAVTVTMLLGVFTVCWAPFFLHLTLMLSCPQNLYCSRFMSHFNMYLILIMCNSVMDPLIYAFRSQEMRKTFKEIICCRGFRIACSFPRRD

AA rats = details: MTII by central infusion; cited from earlier work
C57BL/6J mice = assay: Ethanol consumption following central (i.c.v.) infusion of MC4R agonist; type: in vivo; details: for reduction of alcohol consumption: 20% ethanol, vs aCSF
Description: The generation of Mc3r^−/− mice has been described (Chen, S. et al., Nature Genetics (2000) 26: 97-102). Mc3r^−/− mice are born at the expected frequency and are viable and fertile. […] Studies described below utilized male and female Mc3r^−/− and/or Mc3r^+/+ mice of a C57BL/6J genetic background, 8 to 12 weeks of age at the start of experiment. Non-littermate heterozygous (Mc3r^+/−) mice were bred, resulting in Mc3r^−/− and Mc3r ^+/+ F2 littermate mice. Mice were individually housed in polypropylene cages with wood-chip bedding and had ad libitum access to standard rodent chow (Teklad, Madison, Wis.) and water throughout the experiments except where noted. The colony room was maintained at approximately 22° C. with a 12h:12h light:dark cycle. All procedures used in the present research were in compliance with the National Institute of Health guidelines, and the protocols were approved by the University of North Carolina Animal Care and Use Committee.
Naïve mice were anesthetized with a cocktail of ketamine (117 mg/kg) and xylazine (7.92 mg/kg) and surgically implanted with a 26-gauge cannula (Plastic One, Roanoke, Va.) aimed at the left-lateral ventricle using the following stereotaxic coordinates: 0.2 mm posterior to bregma, 1.0 mm lateral to the midline, and 2.3 mm ventral to the skull surface. Mice were allowed to recover for approximately 2 weeks before experimental procedures were initiated. After experimental procedures, cannula placement was verified histologically. The i.c.v. infusions were given in a 1.0 μl volume with a 5.0 μl Hamilton syringe and infused manually over a one minute period. Mice were acclimated for approximately 2 weeks to drinking from two bottles (continuous 24 hour/day access), one containing water and the other containing 20% ethanol, and body weights were recorded weekly. Following acclimation, mice were distributed to groups based on the last 4-days of baseline ethanol consumption (g/kg/day).
Mice were weighed and ethanol, water, and food were removed from their cages two hours before the beginning of the dark cycle. For the study with i.c.v. infusion of MC4R agonist, C57B1/6J mice were given infusion of either 1.0 or 3.0 μg of the MC4R-selective agonist, cyclo(NH—CH2—CH2—CO-His-D-Phe-Arg-Trp-Glu)-NH2 (Compound A, Phoenix Pharmaceuticals, Inc., Belmont, Calif.) dissolved in aCSF (ns=7 and 8, respectively) or an equal volume of aCSF (n=10) one hour before the beginning of the dark cycle. The 20% ethanol solution, water, and food were returned immediately before the dark cycle and consumption measures were recorded 4 hours and 24 hours later. One-way (drug) ANOVAs were used to assess consumption of 20% ethanol following i.c.v. infusion of MC4R agonist or aCSF.

MC4R [4] = biological target: T1, MC4R; details: cited from earlier work
Target sequence in this assay (P32245 whole entry, species assumed): as the sequence (P32245 whole entry) above

MC5R [5] = biological target: T2, MC5R; details: cited from earlier work
Target sequence in this assay (P33032 whole entry, species assumed): as the sequence (P33032 whole entry) above

| Molecule | Selectivity Binding IC50 3R/4R (MC4R [1]) | Selectivity Binding IC50 5R/4R (MC4R [1]) | Selectivity cAMP EC50 3R/4R (MC4R [2]) | Selectivity cAMP EC50 5R/4R (MC4R [2]) | other results |
| --- | --- | --- | --- | --- | --- |
| N=C(N)NCCC[C@@H]1NC(=O)[C@@H](Cc2ccccc2)NC(=O)[C@H](Cc2c[nH]cn2)NC(=O)CCC(=O)NCCCCC(C(N)=O)NC(=O)[C@H](Cc2c[nH]c3ccccc23)NC1=O (stereo partly shown) [Example 1] (H[dF]RW[ξK]-NH2; linker N-5 via Suc) | 16.7 | 124 | 33 | 357 |  |
| N=C(N)NCCC[C@@H]1NC(=O)[C@@H](Cc2ccccc2)NC(=O)[C@H](Cc2c[nH]cn2)NC(=O)CCC(=O)NCCC(C(N)=O)NC(=O)[C@H](Cc2c[nH]c3ccccc23)NC1=O (stereo partly shown) [Example 2] (H[dF]RW[ξDab]-NH2; linker N-5 via Suc) | 51.3 | 205 | 83 | 758 |  |
| N=C(N)NCCC[C@@H]1NC(=O)[C@@H](Cc2ccccc2)NC(=O)[C@H](Cc2c[nH]cn2)NC(=O)CCC(=O)NCC(C(N)=O)NC(=O)[C@H](Cc2c[nH]c3ccccc23)NC1=O (stereo partly shown) [Example 3] (H[dF]RW[ξDap]-NH2; linker N-5 via Suc) | 22.5 | 50.7 | 17.8 |  | cAMP Assay hMC-5R, % @ 5 (MC5R [3]): 12% @ 5 |
| MTII |  |  |  |  | effect on voluntary ethanol drinking (AA rats): significantly reduces voluntary ethanol drinking |
| cyclo(NH—CH2—CH2—CO-His-D-Phe-Arg-Trp-Glu)-NH2 (FRWE; cyclic with beta-alanine linker, His, C-terminal amide; printed: Phe-Arg-Trp-Glu) [Compound A] |  |  |  |  | reduction of alcohol consumption (C57BL/6J mice; 1.0 μg i.c.v.): 67%; reduction of alcohol consumption (C57BL/6J mice; 3.0 μg i.c.v.): 86%; effect on ethanol drinking (C57BL/6J mice; C57BL/6J mice): significant reduction of ethanol drinking; less alcohol consumed than untreated controls (C57BL/6J mice; C57BL/6J mice, dose not given): up to 86%; selectivity for MC4R over MC3R (MC4R [4]): 90 fold; selectivity for MC4R over MC5R (MC4R [4]): greater than 2000 fold; binding and activation of MC5R (MC5R [5]): extremely weak binding and activation of MC5R |

More lines, main results first:

| Selectivity Binding IC50 3R/4R (MC4R [1]) | Selectivity Binding IC50 5R/4R (MC4R [1]) | Selectivity cAMP EC50 3R/4R (MC4R [2]) | Selectivity cAMP EC50 5R/4R (MC4R [2]) | Molecule | other results |
| --- | --- | --- | --- | --- | --- |
| 10 | 54 | 54 | 229.7 | N=C(N)NCCC[C@@H]1NC(=O)[C@@H](Cc2ccc(Cl)cc2)NC(=O)[C@H](Cc2c[nH]cn2)NC(=O)CCC(=O)NCCCCC(C(N)=O)NC(=O)[C@H](Cc2c[nH]c3ccccc23)NC1=O (stereo partly shown) [Example 4] (H[dPhe(4-Cl)]RW[ξK]-NH2; linker N-5 via Suc) |  |
| 33.85 | 1538 | 97.3 | 1351.3 | N=C(N)NCCC[C@@H]1NC(=O)[C@@H](Cc2ccccc2)NC(=O)[C@H](Cc2c[nH]cn2)NC(=O)CCC(=O)NCCCCC(C(N)=O)NC(=O)[C@H](Cc2ccc3ccccc3c2)NC1=O (stereo partly shown) [Example 5] (H[dF]R[2Nal][ξK]-NH2; linker N-5 via Suc) |  |
| 48 | 750 | 70.4 | 703.7 | N=C(N)NCCC[C@@H]1NC(=O)[C@@H](Cc2ccccc2)NC(=O)[C@H](Cc2c[nH]cn2)NC(=O)CCCCNC(=O)CCC(C(N)=O)NC(=O)[C@H](Cc2c[nH]c3ccccc23)NC1=O (stereo partly shown) [Example 6] ([Ava]H[dF]RW[ξE]-NH2; lactam N-6) |  |
| 44 | 121.9 | 54.39 | 877 | N=C(N)NCCC[C@@H]1NC(=O)[C@@H](Cc2ccccc2)NC(=O)[C@H](Cc2c[nH]cn2)NC(=O)CCCNC(=O)CCC(C(N)=O)NC(=O)[C@H](Cc2c[nH]c3ccccc23)NC1=O (stereo partly shown) [Example 7] ([GABA]H[dF]RW[ξE]-NH2; lactam N-6) |  |
| 3.45 | 3.45 | 62.86 |  | N=C(N)NCCC[C@@H]1NC(=O)[C@@H](Cc2ccccc2)NC(=O)[C@H](Cc2c[nH]cn2)NC(=O)CNC(=O)CCC(C(N)=O)NC(=O)[C@H](Cc2c[nH]c3ccccc23)NC1=O (stereo partly shown) [Example 9] (GH[dF]RW[ξE]-NH2; lactam N-6) | cAMP Assay hMC-5R, % @ 5 (MC5R [3]): 15% @ 5 |
